Data on two molecules can be found in patent US11142533B2, “Macrocycles for use in treating disease” (TURNING POINT THERAPEUTICS, INC., priority 2019, dated 2021).

Data set [1] in a line: Liver microsomal stability. The data set is classed as in vitro ADME. The settings on record: pH 7.4, 1 μM compound, 0.5 mg/mL liver microsome protein. On the procedure: The test compound stock solution was prepared by weighing 1.07 mg and dissolving in 0.261 mL of DMSO to achieve the concentration of 10 mM. Working solution of the test compound was prepared by diluting stock solution using DMSO to yield the concentration of 300 μM.
The assay was carried out in 96-well microtiter plates. In each well, the reaction mixture (25 μL) contained the test compound at the final concentration of 1 μM, 0.5 mg/mL liver microsome protein, and 1 mM NADPH in 100 mM potassium phosphate, pH 7.4 buffer with 3.3 mM MgCl2. The mixtures were incubated in duplicate at 37° C. for 0, 15, 30 or 60 minutes, and 150 μL of quench solution (acetonitrile with 0.1% formic acid) with internal standard (bucetin for positive ESI mode) was added into each well of reaction to terminate the reaction. The plates were then sealed and centrifuged at 4° C. for 15 minutes at 4000 rpm. The resulting supernatant was transferred to fresh plates for LC-MS/MS analysis of the test compounds. Verapamil was used as the positive control to validate the assay system.
All samples were analyzed with LC-MS/MS using an AB Sciex API 4000 instrument, coupled to a Shimadzu LC-20AD LC Pump system. Analytical samples were separated using a Waters Atlantis T3 dC18 reverse phase HPLC column (20 mm×2.1 mm) at a flow rate of 0.5 mL/min. The mobile phase consisted of 0.1% formic acid in water (solvent A) and 0.1% formic acid in acetonitrile (solvent B).
The extent of metabolism was calculated based on the disappearance of the test compound, compared to its initial concentration. The initial rates of clearance of test compounds were calculated using linear regression plot of semi-log % remaining of compounds versus time. The elimination rate constant (equals to negative slope) of the linear regression plot was then used to determine t112 and the intrinsic clearance (CLInt) using the following formula: k=−slope t1/2=0.693/k CLint=k/Cprotein
Where Cprotein (mg/mL) is the microsomal protein concentration in the incubation system.
Background: Liver microsomes are a subcellular fraction often used to study metabolism.

The target of data set [2] is T1, Ba/F3 cell-derived tumors with the EML4-ALK G1202R fusion (Homo sapiens, UniProt Q9UM73, G1202R).
T1 sequence (Q9UM73 with tags, fused parts or gaps G1202R): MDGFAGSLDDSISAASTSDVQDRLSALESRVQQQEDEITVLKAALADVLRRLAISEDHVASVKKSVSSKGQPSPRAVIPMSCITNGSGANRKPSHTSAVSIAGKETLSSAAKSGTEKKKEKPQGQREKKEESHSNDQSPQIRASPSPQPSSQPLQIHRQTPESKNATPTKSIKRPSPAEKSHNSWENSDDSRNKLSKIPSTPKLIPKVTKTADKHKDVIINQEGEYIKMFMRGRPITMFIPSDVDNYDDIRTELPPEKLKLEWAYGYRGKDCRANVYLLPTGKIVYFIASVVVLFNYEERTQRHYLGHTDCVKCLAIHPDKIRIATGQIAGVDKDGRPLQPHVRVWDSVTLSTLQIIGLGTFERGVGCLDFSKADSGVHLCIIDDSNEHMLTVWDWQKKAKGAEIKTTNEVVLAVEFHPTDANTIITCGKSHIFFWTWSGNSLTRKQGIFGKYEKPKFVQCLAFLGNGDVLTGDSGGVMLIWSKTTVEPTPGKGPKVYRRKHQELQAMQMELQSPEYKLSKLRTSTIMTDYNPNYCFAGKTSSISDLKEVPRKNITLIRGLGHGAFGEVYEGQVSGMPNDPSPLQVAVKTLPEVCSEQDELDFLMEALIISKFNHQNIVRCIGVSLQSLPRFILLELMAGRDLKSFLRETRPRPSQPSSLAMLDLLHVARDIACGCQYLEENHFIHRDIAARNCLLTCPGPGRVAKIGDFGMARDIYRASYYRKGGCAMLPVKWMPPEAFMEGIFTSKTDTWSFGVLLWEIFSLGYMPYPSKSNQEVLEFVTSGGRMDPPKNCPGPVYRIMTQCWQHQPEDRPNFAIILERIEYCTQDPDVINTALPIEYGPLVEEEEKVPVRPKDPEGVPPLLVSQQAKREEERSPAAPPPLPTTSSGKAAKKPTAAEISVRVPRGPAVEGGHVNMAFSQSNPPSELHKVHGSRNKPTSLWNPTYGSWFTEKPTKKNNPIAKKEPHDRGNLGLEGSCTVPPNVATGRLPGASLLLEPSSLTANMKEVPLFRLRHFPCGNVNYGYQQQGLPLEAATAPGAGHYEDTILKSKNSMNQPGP
The settings on record: after 7 days of treatment.

The nature of data set [3]: Solubility test in phosphate buffer. The data set is classed as physicochemical. To be noted: aqueous buffer, thermodynamic from solid; phosphate buffer pH 7.4, room temperature. On the procedure: Aliquot of 1.035 mL phosphate buffer (PB) (pH 7.4) was added into 2.07 mg of the test compound (for a 2 mg·mL^−1 upper limiting solubility determination) in a 1.5 mL tubes. The mixture was ultrasonicly treated for 10 min and rotated on rotator at room temperature for more than 8 hr. After rotation, the tube was ultrasonicly treated for 10 min and centrifuged at 13000 rpm for 15 min. 0.3 mL of the supernatant was transferred into a 0.6 mL tube and discarded after rotated for 5 min for rinsing, then about 0.6 mL of the residual supernatant was transferred into the rinsed tube and centrifuged again at 13000 rpm for 15 min. The supernatant after every centrifugation was appropriately diluted and transferred for LC-MS/MS analysis where a standard curve was constructed with 7 concentration levels (2, 4, 10, 20, 40, 100 and 200 μg mL^−1) and used for the quantitation of the analyte in PB.

Data set [4] has as its target KG-1 cell (OP2-FGFR1) (Homo sapiens, UniProt P11362). The data set is described as follows: Cell proliferation assay (CellTiter-Glo). (Cellular ATP, detected with luciferase, serves as a proxy for viable cell number.)
The target of data set [5] is KM12 (TPM3-TRKA) (Homo sapiens, UniProt P04629). The data set is described as follows: Cell proliferation assay (CellTiter-Glo).
Sequence of KM12 (TPM3-TRKA) (P04629 with tags, fused parts or gaps): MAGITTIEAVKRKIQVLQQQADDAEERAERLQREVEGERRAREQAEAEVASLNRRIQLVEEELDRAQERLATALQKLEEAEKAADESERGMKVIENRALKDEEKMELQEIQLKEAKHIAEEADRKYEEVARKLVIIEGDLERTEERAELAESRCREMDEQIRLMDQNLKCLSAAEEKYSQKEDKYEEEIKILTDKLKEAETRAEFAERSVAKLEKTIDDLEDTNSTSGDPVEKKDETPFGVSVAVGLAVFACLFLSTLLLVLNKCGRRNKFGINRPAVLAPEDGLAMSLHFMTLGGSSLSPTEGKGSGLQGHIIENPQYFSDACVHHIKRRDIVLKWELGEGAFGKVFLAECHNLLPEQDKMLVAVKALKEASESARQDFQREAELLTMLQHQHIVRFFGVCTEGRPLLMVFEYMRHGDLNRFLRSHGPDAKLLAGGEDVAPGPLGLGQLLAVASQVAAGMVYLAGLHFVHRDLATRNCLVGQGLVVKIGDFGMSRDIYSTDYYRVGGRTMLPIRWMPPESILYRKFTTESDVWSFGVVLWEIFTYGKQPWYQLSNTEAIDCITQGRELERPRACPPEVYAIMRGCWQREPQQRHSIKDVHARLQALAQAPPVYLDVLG
Where [6] appears, read: female, mouse, liver microsomes.

Converted amounts (≈) assume the structure as drawn. Read-outs that look alike come from different tables or passages of the source.

Sequence of KG-1 cell (OP2-FGFR1) (P11362 456-822 limits assumed): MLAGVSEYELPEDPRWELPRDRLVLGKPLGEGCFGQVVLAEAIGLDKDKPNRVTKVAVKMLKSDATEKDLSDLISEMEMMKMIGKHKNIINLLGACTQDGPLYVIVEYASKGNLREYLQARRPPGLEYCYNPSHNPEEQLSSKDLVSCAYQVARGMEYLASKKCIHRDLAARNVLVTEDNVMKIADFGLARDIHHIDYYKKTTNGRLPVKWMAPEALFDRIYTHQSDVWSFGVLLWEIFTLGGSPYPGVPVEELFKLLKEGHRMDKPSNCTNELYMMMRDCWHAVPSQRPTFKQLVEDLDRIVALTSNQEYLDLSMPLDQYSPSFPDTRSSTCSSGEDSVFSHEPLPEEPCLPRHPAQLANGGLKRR

A word on the microsomal CLint: it is a measure of how fast metabolising enzymes remove a compound, apart from limits set by blood flow. Broadly, the solubility is the concentration that dissolves in the medium under given conditions. Lower therefore signals a poorly soluble substance. The term IC50 denotes the concentration that inhibits the measured activity by half. In the case of `O=C1NCC2(CC2)COc2ccc(F)cc2CN2c3nc4c1cnn4cc3OC[C@H]2C(F)F` [Compound 2, (16′S)-16′-(Difluoromethyl)-12′-fluoro-4′H,5′H,6′H,8′H,14′H,16′H,17′H-spiro[cyclopropane-1,7′-[1,19](metheno)[1,4]oxazino[3,4-j]pyrazolo[4,3-g][1,5,9,11]benzoxatriazacyclotetradecin]-4′-one], the intrinsic clearance (microsomal CLint) at 1 µM in data set [1] (setting [6]) amounted to 25 µL/min/mg; in data set [1] (female, rat, liver microsomes), 3.5 µL/min/mg; in data set [1] (human, pooled liver microsomes), 8.8 µL/min/mg. Also, the “Tumor growth inhibition (TGI)” value is reported as 51% in data set [2] (3 mg/kg BID oral) and 77% in data set [2] (10 mg/kg BID oral). Further, the body weight entry in data set [2] (3 and 10 mg/kg BID) was “no body weight loss”. In addition, the solubility in data set [3] came to 2.6 µg/mL (≈ 5.66 µM). Besides, the half-inhibitory concentration (IC50) in data set [4] was 3.8 nM; in data set [5], under 0.2 nM.

Regarding `CC1(C)COc2ccc(F)cc2CN2c3nc4c(cnn4cc3OC[C@H]2C(F)F)C(=O)N1` [Compound 1, (4S)-4-(Difluoromethyl)-8-fluoro-13,13-dimethyl-3,4,13,14-tetrahydro-6H-18,1-(metheno)[1,4]oxazino[3,4-i]pyrazolo[4,3-f][1,4,8,10]benzoxatriazacyclotridecin-15(12H)-one], the microsomal CLint at 1 µM in data set [1] (setting [6]) was found to be 11 µL/min/mg; in data set [1] (female, rat, liver microsomes), 1.5 µL/min/mg; in data set [1] (human, pooled liver microsomes) it was 8.3 µL/min/mg. For the same molecule, the “Tumor growth inhibition (TGI)” value is reported as 64% in data set [2] (2 mg/kg BID oral), 120% in data set [2] (5 mg/kg BID oral) and 200% in data set [2] (10 mg/kg BID oral). The body weight result in data set [2] (2, 5, 10 mg/kg BID) is on record as “no body weight loss”. For the same molecule, the solubility in data set [3] amounted to 3.3 µg/mL (≈ 7.38 µM). Also, the concentration for half-maximal inhibition (IC50) in data set [4] was 554 nM; in data set [5], under 0.2 nM.
